Assay results published in article PMC4399336 (2015).

Test system: 15 base pair dsDNA, double labeled (Alexa488 / Alexa568) (DNA, duplex) GGAGACCAGAGGCCT/AGGCCTCTGGTCTCC
Test: FRET and fluorescence lifetime titration (donor 517 nm, acceptor 600 nm)
Conditions: 20 °C; 1 μM DNA; intercalation, qualitative; end-to-end distance ratio r1/r0 1.028; buffer not stated

For `[Ru+2].c1ccc(-c2ccccn2)nc1.c1ccc(-c2ccccn2)nc1.c1ccc2nc3c4cccnc4c4ncccc4c3nc2c1`, the binding was “yes”.
